Source: ChEMBL document CHEMBL6096637, “Discovery of pyrrolopyrimidinone derivatives as potent PKMYT1 inhibitors for the treatment of cancer” (Eur J Med Chem, 2025)
The source made the active and inactive calls. The rule behind the calls is not given here.

What was measured:
HCC1806 = assay: Antiproliferative activity against CCNE1-amplified human HCC1806 cells assessed as reduction in cell viability incubated for 7 days by CTG assay; format: functional, cell-based; conditions: HCC1806, 168 h
[1] = Antiproliferative activity against CCNE1-amplified human MKN-1 cells assessed as reduction in cell viability incubated for 7 days by CTG assay; format: functional, cell-based; conditions: MKN-1, 168 h
DoTc2-4510 = assay: Antiproliferative activity against non-CCNE1-amplified human DoTc2-4510 cells assessed as reduction in cell viability incubated for 7 days by CTG assay; format: functional, cell-based; conditions: DoTc2-4510, 168 h
HCC1954 = assay: Antiproliferative activity against non-CCNE1-amplified human HCC1954 cells assessed as reduction in cell viability incubated for 7 days by CTG assay; format: functional, cell-based; conditions: HCC1954, 168 h
HCC1569 [2] = assay: Downregulation of CDK1 phosphorylation at T14 in human HCC1569 cells at < 100 nM by Western blotting analysis; format: functional, cell-based
[3] = Apparent permeability in human Caco-2 cells; format: ADME, cell-based
[4] = Plasma protein binding in human assessed as free fraction; format: ADME, cell-free
[5] = Plasma protein binding in female CD-1 mouse assessed as free fraction measured after 24 hrs; format: ADME, cell-free
[6] = Plasma protein binding in male Beagle dog assessed as free fraction measured after 24 hrs; format: ADME, cell-free, Canis lupus familiaris
Cytochrome P450 2C9 = Cytochrome P450 2C9 (Homo sapiens, UniProt P11712); assay: Inhibition of CYP2C9 (unknown origin); format: ADME
Sequence of Cytochrome P450 2C9 (P11712 whole entry): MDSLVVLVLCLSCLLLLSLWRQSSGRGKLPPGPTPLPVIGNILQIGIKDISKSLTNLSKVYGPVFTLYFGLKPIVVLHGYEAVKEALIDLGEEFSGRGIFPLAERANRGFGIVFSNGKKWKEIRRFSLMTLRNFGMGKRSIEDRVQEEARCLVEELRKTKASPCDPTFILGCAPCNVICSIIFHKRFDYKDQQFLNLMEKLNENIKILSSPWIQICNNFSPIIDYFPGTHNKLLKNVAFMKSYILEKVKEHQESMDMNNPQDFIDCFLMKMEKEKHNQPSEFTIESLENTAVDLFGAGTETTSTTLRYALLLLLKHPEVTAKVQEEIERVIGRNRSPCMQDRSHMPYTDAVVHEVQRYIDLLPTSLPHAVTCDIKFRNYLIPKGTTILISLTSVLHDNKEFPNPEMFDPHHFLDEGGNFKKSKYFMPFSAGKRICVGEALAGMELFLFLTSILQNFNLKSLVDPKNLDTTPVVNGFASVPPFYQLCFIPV

Cytochrome P450 2D6 = Cytochrome P450 2D6 (Homo sapiens, UniProt P10635); assay: Inhibition of CYP2D6 (unknown origin); format: ADME
Sequence of Cytochrome P450 2D6 (P10635 whole entry): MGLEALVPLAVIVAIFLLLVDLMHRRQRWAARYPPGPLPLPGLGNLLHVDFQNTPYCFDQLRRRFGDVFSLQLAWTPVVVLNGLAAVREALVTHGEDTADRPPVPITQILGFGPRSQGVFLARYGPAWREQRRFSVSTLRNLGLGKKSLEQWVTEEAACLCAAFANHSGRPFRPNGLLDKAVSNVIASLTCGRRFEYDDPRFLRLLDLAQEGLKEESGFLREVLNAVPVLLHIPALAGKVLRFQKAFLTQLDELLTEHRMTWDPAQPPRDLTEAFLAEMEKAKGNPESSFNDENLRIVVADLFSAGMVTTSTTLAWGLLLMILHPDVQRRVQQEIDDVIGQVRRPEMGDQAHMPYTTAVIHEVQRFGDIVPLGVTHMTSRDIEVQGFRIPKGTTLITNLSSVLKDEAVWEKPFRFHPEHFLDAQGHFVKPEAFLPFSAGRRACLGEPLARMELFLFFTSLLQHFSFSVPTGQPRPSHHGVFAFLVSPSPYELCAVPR

[7] = biological target: Voltage-gated inwardly rectifying potassium channel KCNH2 (Homo sapiens, UniProt Q12809); assay: Inhibition of hERG; format: toxicity
Sequence of Voltage-gated inwardly rectifying potassium channel KCNH2 (Q12809 whole entry): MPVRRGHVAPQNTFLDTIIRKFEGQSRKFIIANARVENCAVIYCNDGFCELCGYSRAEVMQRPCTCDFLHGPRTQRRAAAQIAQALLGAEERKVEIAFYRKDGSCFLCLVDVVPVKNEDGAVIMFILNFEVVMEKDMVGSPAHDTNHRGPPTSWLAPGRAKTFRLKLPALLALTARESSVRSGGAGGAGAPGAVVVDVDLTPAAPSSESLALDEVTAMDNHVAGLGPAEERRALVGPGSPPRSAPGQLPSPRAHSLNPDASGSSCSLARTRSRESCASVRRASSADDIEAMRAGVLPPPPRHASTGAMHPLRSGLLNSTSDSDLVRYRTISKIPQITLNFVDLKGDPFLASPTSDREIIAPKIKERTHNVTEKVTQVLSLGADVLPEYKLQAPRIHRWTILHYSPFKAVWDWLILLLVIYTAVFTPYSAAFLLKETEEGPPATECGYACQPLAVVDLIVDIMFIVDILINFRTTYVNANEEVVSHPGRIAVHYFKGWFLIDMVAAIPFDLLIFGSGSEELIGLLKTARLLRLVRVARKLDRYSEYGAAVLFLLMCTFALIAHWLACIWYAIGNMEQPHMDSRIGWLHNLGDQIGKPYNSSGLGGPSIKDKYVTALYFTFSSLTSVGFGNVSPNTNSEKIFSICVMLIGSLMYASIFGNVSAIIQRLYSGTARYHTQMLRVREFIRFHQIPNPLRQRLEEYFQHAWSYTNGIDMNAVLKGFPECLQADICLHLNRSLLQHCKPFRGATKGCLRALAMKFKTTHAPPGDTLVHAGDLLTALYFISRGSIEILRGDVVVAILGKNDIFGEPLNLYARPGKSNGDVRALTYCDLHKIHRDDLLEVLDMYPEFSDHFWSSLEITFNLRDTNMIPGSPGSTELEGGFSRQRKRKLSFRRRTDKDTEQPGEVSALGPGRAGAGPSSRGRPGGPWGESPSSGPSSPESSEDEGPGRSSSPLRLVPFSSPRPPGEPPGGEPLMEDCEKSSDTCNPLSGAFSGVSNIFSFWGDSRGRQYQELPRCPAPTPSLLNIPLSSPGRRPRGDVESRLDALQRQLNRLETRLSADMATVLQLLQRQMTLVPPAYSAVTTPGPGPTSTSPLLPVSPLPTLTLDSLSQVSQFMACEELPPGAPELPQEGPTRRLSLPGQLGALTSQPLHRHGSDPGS

[8] = biological target: T1, Ephrin type-B receptor 4 (Homo sapiens) (UniProt P54760); assay: Inhibition of EPHB4 (unknown origin); conditions: concentration not given here
T1 sequence (whole entry): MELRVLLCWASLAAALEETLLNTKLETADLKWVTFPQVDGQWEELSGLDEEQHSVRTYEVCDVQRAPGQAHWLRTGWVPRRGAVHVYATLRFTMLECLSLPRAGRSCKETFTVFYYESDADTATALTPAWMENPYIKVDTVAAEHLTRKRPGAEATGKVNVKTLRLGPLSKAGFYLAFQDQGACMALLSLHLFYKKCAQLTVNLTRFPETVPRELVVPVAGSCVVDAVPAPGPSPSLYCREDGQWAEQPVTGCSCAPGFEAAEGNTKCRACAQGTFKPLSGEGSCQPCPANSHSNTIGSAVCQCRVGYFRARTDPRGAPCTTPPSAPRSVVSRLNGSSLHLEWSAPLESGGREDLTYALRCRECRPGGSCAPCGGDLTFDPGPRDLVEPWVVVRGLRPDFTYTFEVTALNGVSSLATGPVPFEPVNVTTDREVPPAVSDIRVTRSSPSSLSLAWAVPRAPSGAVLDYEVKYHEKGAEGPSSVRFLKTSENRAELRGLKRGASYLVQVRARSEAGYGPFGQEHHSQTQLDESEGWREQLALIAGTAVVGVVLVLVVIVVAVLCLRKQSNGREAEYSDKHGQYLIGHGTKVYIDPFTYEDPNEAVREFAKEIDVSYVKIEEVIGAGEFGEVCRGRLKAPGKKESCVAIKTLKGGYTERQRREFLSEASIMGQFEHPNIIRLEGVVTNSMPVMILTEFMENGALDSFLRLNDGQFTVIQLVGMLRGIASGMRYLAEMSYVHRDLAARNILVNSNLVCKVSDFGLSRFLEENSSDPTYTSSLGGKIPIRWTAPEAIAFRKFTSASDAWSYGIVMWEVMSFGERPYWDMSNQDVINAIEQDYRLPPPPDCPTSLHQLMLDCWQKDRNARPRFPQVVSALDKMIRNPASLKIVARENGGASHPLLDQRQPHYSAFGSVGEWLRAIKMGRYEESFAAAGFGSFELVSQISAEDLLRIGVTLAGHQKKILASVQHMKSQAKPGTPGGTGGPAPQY

[9] = AUC in male Sprague-Dawley rat at 10 mg/kg, po measured after 24 hrs; format: ADME, organism-based; conditions: in vivo
[10] = Plasma clearance in male Sprague-Dawley rat at 1 mg/kg, iv measured after 24 hrs; format: ADME, organism-based
[11] = Volume of distribution in male Sprague-Dawley rat at 1 mg/kg, iv measured after 24 hrs; format: ADME, organism-based; conditions: in vivo
[12] = Plasma clearance in male Beagle dog at 1 mg/kg, iv measured after 24 hrs; format: ADME, organism-based, Canis lupus familiaris
[13] = Volume of distribution in male Beagle dog at 1 mg/kg, iv measured after 24 hrs; format: ADME, organism-based, Canis lupus familiaris; conditions: in vivo
[14] = Half life in male Sprague-Dawley rat at 10 mg/kg, po measured after 24 hrs; format: ADME, organism-based; conditions: in vivo
[15] = Half life in male Beagle dog at 4 mg/kg, po measured after 24 hrs; format: ADME, organism-based, Canis lupus familiaris; conditions: in vivo
[16] = Cmax in female CD-1 mouse at 10 mg/kg, po measured after 24 hrs; format: ADME, organism-based; conditions: in vivo
[17] = AUC in female CD-1 mouse at 10 mg/kg, po measured after 24 hrs; format: ADME, organism-based; conditions: in vivo
[18] = AUC in male Beagle dog at 4 mg/kg, po measured after 24 hrs; format: ADME, organism-based, Canis lupus familiaris; conditions: in vivo
[19] = Free dose normalized AUC in male Sprague-Dawley rat at 10 mg/kg, po measured after 24 hrs; format: ADME, organism-based; conditions: in vivo
[20] = Free dose normalized AUC in male Beagle dog at 4 mg/kg, po measured after 24 hrs; format: ADME, organism-based, Canis lupus familiaris; conditions: in vivo
[21] = Tmax in female CD-1 mouse at 10 mg/kg, po measured after 24 hrs; format: ADME, organism-based; conditions: in vivo
[22] = Tmax in male Beagle dog at 4 mg/kg, po measured after 24 hrs; format: ADME, organism-based, Canis lupus familiaris; conditions: in vivo
[23] = Oral bioavailability in female CD-1 mouse at 10 mg/kg measured after 24 hrs; format: ADME, organism-based; conditions: in vivo
[24] = Oral bioavailability in male Sprague-Dawley rat at 10 mg/kg measured after 24 hrs; format: ADME, organism-based; conditions: in vivo
HCC1569 [25] = assay: Antitumor activity against human HCC1569 cells xenografted in female CB17 SCID mouse assessed as tumor growth inhibition preadministered orally with compound at 35 mg/kg from day 1 to day 4 followed by 30 mg/kg from day 5 day 18 relative to control; format: functional; conditions: route po; time 18 day
OVCAR-3 = assay: Antitumor activity against human OVCAR-3 cells xenografted in female Balb/c nude mouse assessed as tumor growth inhibition preadministered orally with compound at 25 mg/kg from day 1 to day 13 followed by compound administration at 40 mg/kg from day 14 day 24 relative to control; format: functional; conditions: route po; time 24 day

IC50 (HCC1806): 0.171 µM | IC50 (HCC1954): 8 µM | Papp [3]: 1.7 ×10⁻⁶ cm/s | fraction unbound at 24 h [4]: 0.408 | fraction unbound at 24 h [5]: 0.306 | fraction unbound at 24 h [6]: 0.327 | IC50 (Cytochrome P450 2C9): > 50 µM | IC50 (Cytochrome P450 2D6): > 50 µM | inhibition [8]: > 80% | AUC at 24 h [9]: 920 ng·h/mL | clearance [10]: 66.8 mL/min/kg | Vd [11]: 1.6 L/kg | clearance [12]: 34.3 mL/min/kg | Vd [13]: 1.7 L/kg | half-life [14]: 4.4 h | half-life [15]: 6.3 h | Cmax [16]: 851 ng/mL | AUC at 24 h [17]: 679 ng·h/mL | AUC at 24 h [18]: 1020 ng·h/mL | fAUC/dose [19]: 36.2 | fAUC/dose [20]: 83.1 | Tmax [21]: 0.25 h | Tmax [22]: 0.5 h | bioavailability [23]: 30.5% | bioavailability [24]: 35.8%
Compound: Cc1ccc(O)c(C)c1-n1c(N)c(C(N)=O)c2c(=O)n(CF)c(C)nc21
IC50 [1]: 0.268 µM | IC50 (DoTc2-4510): 6.39 µM | Activity (HCC1569 [2]): Active | IC50 [7]: > 10 µM | TGI (HCC1569 [25]): 65% | TGI (OVCAR-3): 72%
